Columns and labels:
[1] = biological target: T1, CDK1/Cyclin B (Homo sapiens, UniProt P06493); test: Enzymatic assay for CDK1 (LANCE Ultra kinase assay, FRET based); format: biochemical; conditions: ATP at Km; read-out: CDK1 enzymatic activity IC50
T1 construct: purchased Invitrogen PR4768C
How it was run: (§1)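 TR-FRET (LANCE Ultra) kinase assays with a ULight-labelled peptide substrate and a Europium-labelled anti-phospho antibody. ATP was set at its Km for each kinase. Inhibition was measured on purified CDK/cyclin complexes: CDK7/Cyclin H/MNAT1 and CDK1/Cyclin B.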

[2] = biological target: T2, CDK2/Cyclin A (Homo sapiens, UniProt P24941); test: Enzymatic assay for CDK2 (LANCE Ultra kinase assay, FRET based); format: biochemical; conditions: ATP at Km
T2 construct: purchased Invitrogen PV6290
How it was run: (§2)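 Inhibition was measured at ATP Km with 68 nM ULight-MBP peptide and CDK2/Cyclin A ([…]) or CDK5/p25 ([…]), using 8-dose 4-fold compound dilutions from DMSO. Kinase reaction ran 60 min at 23° C, then Eu anti-phospho-MBP plus EDTA were added for another 60 min before the fluorescence read.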

[3] = biological target: T3, CDK5/p25 (Homo sapiens, UniProt Q00535); test: Enzymatic assay for CDK5 (LANCE Ultra kinase assay, FRET based); format: biochemical; conditions: ATP at Km
T3 construct: purchased Invitrogen PR8543B
How it was run: as §2

[4] = biological target: T4, CDK7/Cyclin H/MNAT1 (Homo sapiens, UniProt P50613); test: Enzymatic assay for CDK7 (LANCE Ultra kinase assay, FRET based); format: biochemical; conditions: for IC50: ATP at Km
T4 construct: purchased Invitrogen PR6749B
How it was run: as §1

[5] = test system: A2780; test: A2780 viability assay (CellTiter-Glo, 72 hours); format: cell-based; conditions: Homo sapiens; A2780 cells
How it was run: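 Cells in RPMI-1640 with 10% FBS were seeded (MV4-11 1×10^4, OVCAR-3 5×10^3, A2780 1×10^3 cells/well) and treated 24 h later with compound at 0.0015–10 uM, final DMSO under 0.1%. After 72 h at 37 °C, viability was read by CellTiter-Glo luminescence, in duplicate.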

[6] = test system: OVCAR-3; test: OVCAR-3 viability assay (CellTiter-Glo, 72 hours); format: cell-based; conditions: Homo sapiens; OVCAR-3 cells
Procedure: Human […] cell line, MV4-11_(ATCC, Cat #CRL-9591), NSCLC (Non-small cell lung cancer) cell line H460 (ATCC, Cat #HTB-177), A2780 (ECACC, Cat #93112519) and OVCAR-3(ATCC, Cat #HTB-161) were obtained from ATCC. Cells were grown in RPMI-1640 media (Invitrogen, Cat #22400-089) supplemented with 10% FBS (Invitrogen, Cat #10099141) and 1% penicillin/streptomycin (Invitrogen, Cat #15070063) and cultured at 37° C., 5% CO2 in a humidified chamber. All cell lines were routinely tested for mycoplasma.
To effect of the CDK7 inhibitor to inhibit the growth of target cancer cells, viability assay were conducted a 72 hour time period. Briefly, the candidate cell line was plated in 96 well plate at the following density of cells respectively. 1×10^4 cells/well for MV4-11, 5×10^3 for H460 and OVCAR-3, and 1×10^3 for A2780. After 24 hours, the cells were treated with various concentrations of the compound (ranging from 0.0015 uM to 10 uM). DMSO solvent without compound served as a control and final DMSO concentration lest than 0.1%. After 72 hours of incubation at 37° C., 5% CO2 incubator, cells were analyzed for the viability using the CellTiter-Glo Luminescent Cell Viability Assay (Promega, Cat #G7570). All viability assays were performed in duplicate and Luminescence was read using an Envision (Perkin Elmer, USA). Data was analyzed using XLfit software.

T4 sequence (P50613 whole entry): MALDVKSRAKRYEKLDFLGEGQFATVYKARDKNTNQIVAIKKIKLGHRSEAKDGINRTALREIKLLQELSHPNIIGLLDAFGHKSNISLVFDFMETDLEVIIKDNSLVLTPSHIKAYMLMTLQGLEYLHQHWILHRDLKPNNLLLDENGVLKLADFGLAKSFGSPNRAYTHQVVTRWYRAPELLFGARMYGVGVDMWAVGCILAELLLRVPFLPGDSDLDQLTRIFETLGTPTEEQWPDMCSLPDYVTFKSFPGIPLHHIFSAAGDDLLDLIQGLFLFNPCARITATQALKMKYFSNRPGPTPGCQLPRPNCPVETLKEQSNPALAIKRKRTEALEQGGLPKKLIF
T4 sequence (P51946 whole entry partner): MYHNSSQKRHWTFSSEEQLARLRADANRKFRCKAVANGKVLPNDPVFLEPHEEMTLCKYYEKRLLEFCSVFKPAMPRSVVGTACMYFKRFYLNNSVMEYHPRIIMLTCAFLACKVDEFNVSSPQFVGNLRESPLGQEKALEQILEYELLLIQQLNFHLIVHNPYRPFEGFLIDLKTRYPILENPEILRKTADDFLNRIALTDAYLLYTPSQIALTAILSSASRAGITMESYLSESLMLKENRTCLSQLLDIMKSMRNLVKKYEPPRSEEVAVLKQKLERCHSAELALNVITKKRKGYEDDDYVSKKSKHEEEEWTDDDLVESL
T4 sequence (P51948 whole entry partner): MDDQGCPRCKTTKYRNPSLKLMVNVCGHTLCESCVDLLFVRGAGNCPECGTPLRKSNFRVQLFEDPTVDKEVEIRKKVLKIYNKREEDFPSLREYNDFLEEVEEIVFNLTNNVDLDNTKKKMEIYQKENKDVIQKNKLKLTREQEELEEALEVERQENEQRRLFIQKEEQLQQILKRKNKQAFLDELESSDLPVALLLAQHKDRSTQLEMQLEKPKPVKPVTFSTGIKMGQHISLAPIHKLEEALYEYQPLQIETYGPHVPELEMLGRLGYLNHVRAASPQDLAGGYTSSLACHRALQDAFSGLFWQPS
T1 sequence (P06493 whole entry): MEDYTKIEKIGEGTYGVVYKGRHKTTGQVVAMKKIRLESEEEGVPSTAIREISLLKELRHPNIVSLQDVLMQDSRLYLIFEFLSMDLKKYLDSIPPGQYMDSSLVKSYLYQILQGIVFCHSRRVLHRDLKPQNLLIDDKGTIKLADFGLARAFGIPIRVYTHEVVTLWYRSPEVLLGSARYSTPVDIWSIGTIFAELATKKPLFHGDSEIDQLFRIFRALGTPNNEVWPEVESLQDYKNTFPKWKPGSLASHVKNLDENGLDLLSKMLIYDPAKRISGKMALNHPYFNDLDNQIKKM
T1 sequence (P14635 whole entry partner): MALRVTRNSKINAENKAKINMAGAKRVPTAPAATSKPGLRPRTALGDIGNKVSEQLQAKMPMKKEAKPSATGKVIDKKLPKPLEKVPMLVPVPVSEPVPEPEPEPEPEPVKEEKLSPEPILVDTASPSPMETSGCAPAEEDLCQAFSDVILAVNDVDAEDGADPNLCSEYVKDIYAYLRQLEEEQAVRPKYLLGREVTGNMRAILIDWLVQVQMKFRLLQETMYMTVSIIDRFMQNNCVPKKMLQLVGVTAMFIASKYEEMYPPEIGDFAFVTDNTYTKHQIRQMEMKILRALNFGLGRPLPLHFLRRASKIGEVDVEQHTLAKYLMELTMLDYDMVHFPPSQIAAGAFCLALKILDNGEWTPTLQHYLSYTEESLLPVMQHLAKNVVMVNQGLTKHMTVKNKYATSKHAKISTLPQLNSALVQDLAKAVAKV
T3 sequence (Q00535 whole entry): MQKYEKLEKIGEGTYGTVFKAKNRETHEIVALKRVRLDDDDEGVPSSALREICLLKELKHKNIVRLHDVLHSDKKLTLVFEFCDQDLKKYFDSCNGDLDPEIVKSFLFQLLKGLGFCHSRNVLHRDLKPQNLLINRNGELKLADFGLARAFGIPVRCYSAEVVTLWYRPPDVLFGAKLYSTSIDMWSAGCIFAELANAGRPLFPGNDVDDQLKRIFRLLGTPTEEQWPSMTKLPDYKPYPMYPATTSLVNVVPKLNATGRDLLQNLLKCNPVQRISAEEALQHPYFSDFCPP
T3 sequence (Q15078 99-307 partner limits assumed): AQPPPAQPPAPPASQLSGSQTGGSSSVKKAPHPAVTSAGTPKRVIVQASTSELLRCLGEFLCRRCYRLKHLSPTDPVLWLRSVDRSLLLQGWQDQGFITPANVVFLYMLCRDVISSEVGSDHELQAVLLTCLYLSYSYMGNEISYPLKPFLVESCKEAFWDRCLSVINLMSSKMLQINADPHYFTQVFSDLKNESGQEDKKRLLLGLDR

Structure (SMILES) | IC50 [1] [nM] | IC50 [2] [nM] | IC50 [3] [nM] | IC50 [4] [nM] | CDK1/CDK7: Selectivity of CDK7 inhibition over CDK1 inhibition [4] | CDK2/CDK7: Selectivity of CDK7 inhibition over CDK2 inhibition [4] | CDK5/CDK7: Selectivity of CDK7 inhibition over CDK5 inhibition [4] | IC50 [5] [nM] | IC50 [6] [nM]
CC(C)c1cnn2c(NCc3ccccc3-c3nccc4cc(NC(=O)/C=C/CN(C)C)ccc34)nc(NC3CCC(C)(C)NC3)nc12 (stereo not drawn) [Compound 179] | > 1000 | > 1000 | > 1000 | < 100 | A (A indicates [fold] > 500) | A (A indicates [fold] > 500) | A (A indicates [fold] > 500) | < 1000 | < 1000
C=C(F)C(=O)Nc1ccc2c(-c3ccccc3CNc3nc(NC[C@H]4CCN(C(C)C)C[C@@H]4O)nc4c(C(C)C)cnn34)nccc2c1 [Compound 168] | > 1000 | > 1000 | > 1000 | < 100 | B (B indicates 50 < [fold] ≤ 500) | B (B indicates 50 < [fold] ≤ 500) | B (B indicates 50 < [fold] ≤ 500) | < 1000 | < 1000
CC(C)c1cnn2c(NCc3ccccc3-c3nccc4cc(NC(=O)/C=C/CN(C)C)ccc34)nc(OC3CC4CCC(C3)N4C)nc12 (stereo not drawn) [Compound 122] | > 1000 | > 1000 | > 1000 | < 100 | A (A indicates [fold] > 500) | A (A indicates [fold] > 500) | A (A indicates [fold] > 500) | < 1000 | < 1000
CC(C)c1cnn2c(NCc3ccccc3-c3nccc4cc(NC(=O)/C=C/CN(C)C)ccc34)nc(N3CCCC4(CC3)OCCO4)nc12 [Compound 115] | > 1000 | > 1000 | > 1000 | 100 to 1000 | B (B indicates 50 < [fold] ≤ 500) | B (B indicates 50 < [fold] ≤ 500) | B (B indicates 50 < [fold] ≤ 500) | < 1000 | 1000 to 10000
CC(C)c1cnn2c(NCc3ccccc3-c3nccc4cc(NC(=O)/C=C/CN5CCOCC5)ccc34)nc(NC3CCC(C)(C)NC3)nc12 (stereo not drawn) [Compound 180] | > 1000 | > 1000 | > 1000 | < 100 | A (A indicates [fold] > 500) | A (A indicates [fold] > 500) | A (A indicates [fold] > 500) | < 1000 | < 1000
C=C(F)C(=O)Nc1ccc2c(-c3ccccc3CNc3nc(N4CCC(OCC)CC4)nc4c(C(C)C)cnn34)nccc2c1 [Compound 85] | > 1000 | > 1000 | > 1000 | 100 to 1000 | B (B indicates 50 < [fold] ≤ 500) | B (B indicates 50 < [fold] ≤ 500) | B (B indicates 50 < [fold] ≤ 500) | < 1000 | < 1000
COC1CC2CCC(C1)N2c1nc(NCc2ccccc2-c2nccc3cc(NC(=O)/C=C/CN(C)C)ccc23)n2ncc(C(C)C)c2n1 (stereo not drawn) [Compound 103] | > 1000 | > 1000 | > 1000 | < 100 | B (B indicates 50 < [fold] ≤ 500) | B (B indicates 50 < [fold] ≤ 500) | B (B indicates 50 < [fold] ≤ 500) | < 1000 | < 1000
C=C(F)C(=O)Nc1ccc2c(-c3ccccc3CNc3nc(O[C@H]4CCCNC4)nc4c(C(C)C)cnn34)nccc2c1 [Compound 159] | > 1000 | > 1000 | > 1000 | 100 to 1000 | B (B indicates 50 < [fold] ≤ 500) | B (B indicates 50 < [fold] ≤ 500) | B (B indicates 50 < [fold] ≤ 500) | < 1000 | 1000 to 10000
C=C(F)C(=O)Nc1ccc2c(-c3ccccc3CNc3nc(NC4CCC(OC)CC4)nc4c(C(C)C)cnn34)nccc2c1 (stereo not drawn) [Compound 84] | > 1000 | > 1000 | > 1000 | 100 to 1000 | B (B indicates 50 < [fold] ≤ 500) | B (B indicates 50 < [fold] ≤ 500) | B (B indicates 50 < [fold] ≤ 500) | < 1000 | < 1000
Cc1nc(NCc2ccccc2-c2nccc3cc(NC(=O)/C=C/CN(C)C)ccc23)n2ncc(C(C)C)c2n1 [Compound 167] | > 1000 | > 1000 | > 1000 | 100 to 1000 | B (B indicates 50 < [fold] ≤ 500) | B (B indicates 50 < [fold] ≤ 500) | B (B indicates 50 < [fold] ≤ 500) | < 1000 | < 1000
C=C(C)C(=O)Nc1ccc2c(-c3ccccc3CNc3nc(NC4CCC(C)(C)NC4)nc4c(C(C)C)cnn34)nccc2c1 (stereo not drawn) [Compound 181] | > 1000 | > 1000 | > 1000 | < 100 | A (A indicates [fold] > 500) | A (A indicates [fold] > 500) | A (A indicates [fold] > 500) | < 1000 | < 1000
C=C(F)C(=O)Nc1ccc2c(-c3ccccc3CNc3nc(NC[C@H]4CCNC[C@H]4O)nc4c(C(C)C)cnn34)nccc2c1 [Compound 158] | > 1000 | > 1000 | > 1000 | < 100 | A (A indicates [fold] > 500) | A (A indicates [fold] > 500) | A (A indicates [fold] > 500) | < 1000 | < 1000
C=C(F)C(=O)Nc1ccc2c(-c3ccccc3CNc3cc(C)nc4c(C(C)C)cnn34)nccc2c1 [Compound 156] | > 1000 | > 1000 | > 1000 | 100 to 1000 | B (B indicates 50 < [fold] ≤ 500) | B (B indicates 50 < [fold] ≤ 500) | B (B indicates 50 < [fold] ≤ 500) | < 1000 | 1000 to 10000
CC(C)c1cnn2c(NCc3ccccc3-c3nccc4cc(NC(=O)/C=C/CN(C)C)ccc34)cc(N3CCC4(CC3)OCCO4)nc12 [Compound 124] | > 1000 | > 1000 | > 1000 | < 100 | B (B indicates 50 < [fold] ≤ 500) | B (B indicates 50 < [fold] ≤ 500) | B (B indicates 50 < [fold] ≤ 500) | < 1000 | < 1000
CC(C)c1cnn2c(NCc3ccccc3-c3nccc4cc(NC(=O)/C=C/CN(C)C)ccc34)nc(N[C@@H]3CCCNC3)nc12 [Compound 150] | > 1000 | > 1000 | > 1000 | < 100 | A (A indicates [fold] > 500) | A (A indicates [fold] > 500) | A (A indicates [fold] > 500) | < 1000 | < 1000

Reference: patent US12606561B2, “Substituted pyrazolo[1,5-a][1,3,5]triazines as CDK inhibitors” (QURIENT CO., LTD., priority 2018, dated 2026)
